Earlier results as cited in patent publication US20040097599A1, “Antibacterial and antifungal compositions based on branched C-11 alcohols” (priority 2001, published 2004).
Converted amounts (≈) assume the structure as drawn.

Tested on: Streptococcus mutans
Conditions: towards Streptococcus mutans; J. Agric. Food Chem. 1993, 41, 2447-2450

Compound | MIC (Minimum Inhibitory Concentration) [mg/L]
CCCCCCCCCCCCCO [1-tridecanol] | 6.25 (≈ 31.2 µM)
CCCCCCCCCCCCO [1-dodecanol] | 6.25 (≈ 33.5 µM)
